The source of these data is publication PMC7587931, “Affinity of Antifungal Isoxazolo[3,4-b]pyridine-3(1H)-Ones to Phospholipids in Immobilized Artificial Membrane (IAM) Chromatography” (Molecules, 2020).

Test in the first series: not given
Set-up: method as in PMID 31779124. The settings on record: RP-LC, determined previously; cited from earlier work.
Consider `Cn1oc(=O)c2cc3cc(F)ccc3nc21` [Compound 20], for which the logkw is given as 2.97.

With `CC(=O)n1oc(=O)c2c(C)cc(C)nc21` [Compound 7], the logkw is 2.53.

For `Cc1ccc2nc3c(cc2c1)c(=O)on3C` [Compound 26], the logkw is on record as 3.24.

In the case of `CCCn1oc(=O)c2c(C)cc(C)nc21` [Compound 15], the logkw is 3.28.

For `Cc1ccc2cc3c(=O)on(C)c3nc2c1` [Compound 24], the logkw was 3.21.

Turning to `CCCCn1oc(=O)c2c(C)cc(C)nc21` [Compound 13], the logkw is 3.69.

Turning to `Cc1cc(C)c2c(=O)o[nH]c2n1` [Compound 14], the logkw is reported as 2.07.

In the case of `Cc1cc2cc3c(=O)on(C)c3nc2cc1C` [Compound 22], the logkw was 3.50.

Regarding `C#CCn1oc(=O)c2c(C)cc(C)nc21` [Compound 16], the logkw is reported as 2.81.

Consider `Cn1oc(=O)c2cc3cc(Cl)ccc3nc21` [Compound 21], for which the logkw is given as 3.33.

In the case of `COc1ccc2nc3c(cc2c1)c(=O)on3C` [Compound 19], the logkw is on record as 3.14.

For the compound `COc1cc(Cn2oc(=O)c3c(C)cc(C)nc32)cc(OC)c1OC` [Compound 18], the logkw is 3.67.

`CC(=O)n1oc(=O)c2cc3ccccc3nc21` [Compound 4]: the logkw is recorded as 2.79.

In the case of `COc1ccc(OC)c2nc3c(cc12)c(=O)on3C` [Compound 25], the logkw is given as 3.23.

Regarding `Cc1cc(C)c2c(=O)on(Cc3ccccc3)c2n1` [Compound 6], the logkw is listed as 3.68.

On to `O=C(c1ccccc1)n1oc(=O)c2cc3ccccc3nc21` [Compound 5], for which the logkw is on record as 3.76.

On to `Cn1oc(=O)c2cc3ccccc3nc21` [Compound 3], for which the logkw is 2.87.

In the case of `Cc1cc(C)c2c(=O)on(C)c2n1` [Compound 10], the logkw is on record as 2.58.

With `O=c1on(Cc2ccccc2)c2nc3ccccc3cc12` [Compound 2], the logkw was 3.98.

`Cc1cc(C)c2c(=O)on(C(=O)c3ccc(F)cc3)c2n1` [Compound 17]: the logkw is 3.70.

As to `CCn1oc(=O)c2c(C)cc(C)nc21` [Compound 8], the logkw is recorded as 2.90.

As for `Cc1cc(C)c2c(=O)on(C(=O)c3ccccc3)c2n1` [Compound 9], the logkw is recorded as 2.77.

As for `O=c1onc2[nH]c3ccccc3cc1-2` [Compound 1], the logkw is 2.36.

Regarding `COc1cc(Cn2oc(=O)c3c(C)cc(C)nc32)cc(OC)c1` [Compound 11], the logkw is 3.83.

The next series is described as follows: IAM-HPLC affinity to phospholipids (CHIIAM, gradient elution). The format is physicochemical. The conditions noted are these: IAM.PC.DD2 column, gradient 0-85% acetonitrile, 10 mM phosphoric buffer pH 7.4, 30.0 °C.
Protocol: Thus, the CHI/CHIIAM values range from 0 to 100, corresponding to the concentration of acetonitrile in the mobile phase and reflecting the nature of the target compound: low and high values correspond to hydrophilic and lipophilic molecules, respectively.
All the HPLC experiments were carried out using a Prominence-1 LC-2030C 3D HPLC system (Shimadzu, Japan) equipped with a Diode-Array Detection (DAD) detector and an IAM.PC.DD2 column (10 × 4.6 mm; particle size 10.0 µm with an IAM guard column; Regis Technologies, Morton Grove, IL, USA). The LabSolution system (version 5.90, Shimadzu, Japan) was applied to control the HPLC system and for data collection. Before analysis, stock solutions of solutes were diluted to obtain concentrations of 100 μg/mL; the injected volume was 5 μL. The IAM-HPLC analyses were carried with a linear gradient of 0–85% phase B (where phase A was a 10 mM phosphoric buffer at pH 7.4 and phase B was acetonitrile) at a flow rate of 1.5 mL/min. The temperature of the chromatographic column was controlled and set to 30.0 °C and the analysis time was 6.5 min. The CHIIAM indices of the studied compounds were obtained using a calibration set of reference substances using the protocol proposed by Valko et al. [33]. Each HPLC analysis was run in triplicate.
Consider `Cc1cc(C)c2c(=O)o[nH]c2n1` [Compound 14], for which the CHIIAM entry is “migrated together with the front of the mobile phase”.

With `Cn1oc(=O)c2cc3cc(Cl)ccc3nc21` [Compound 21], the CHIIAM amounted to 33.40.

As to `Cc1cc(C)c2c(=O)on(C(=O)c3ccccc3)c2n1` [Compound 9], the CHIIAM turned out to be 29.99.
